Test results as given in US8691855B2, “Compounds, isomer thereof, or pharmaceutically acceptable salts thereof as vanilloid receptor antagonist and pharmaceutical compositions containing the same” (Amorepacific Corporation, priority 2008, dated 2014).
pIC50: −log10 of the molar value.

Molecular target: T1, vanilloid receptor (Rattus norvegicus, UniProt O35433)
T1 construct: DRG nerve cells from the primary culture of 2 days were equilibrated; endogenous in cells; host or cells: primary culture of dorsal root ganglion neurons from neonatal SD rats
Experiment: 45Ca influx test (antagonist calcium uptake test) in rat DRG neurons stimulated with capsaicin
Assay type: cell-based
Conditions: neonatal SD rat DRG neurons, capsaicin 0.5 μM; for pIC50: 45Ca
Method: 1) Separation of spinal dorsal root ganglia (DRG) in newborn rats and primary culture thereof
Neonatal (2-3 clay old or younger than 2-3 day old) SD rats were put in ice for 5 minutes to anesthetize and disinfected with 70% ethanol. DRG of all part of spinal cord were dissected (Wood et al., 1988, J. Neurosci. 8, pp 3208-3220) and collected in DME/F12 medium to which 1.2 g/l sodium bicarbonate and 50 mg/l gentamycin were added. The DRG were incubated sequentially at 37° C. for 30 mins in 200 U/ml collagenase and 2.5 mg/ml trypsin, separately. The ganglia were washed twice with DME/F12 medium supplemented with 10% horse serum, triturated through a fire-polished Pasteur pipette, filtered through Nitex 80 membrane to obtain single cell suspension and the suspension was washed once more. This was subjected to centrifugation, then resuspended in cell culture medium at certain level of cell density. As the cell culture medium, DME/F12 medium supplemented with 10% horse serum was diluted with identical medium conditioned by C6 glioma cells 2 clays on a confluent monolayer (1:1), and NGF (Nerve Growth Factor) was added to adjust 200 ng/ml as final concentration. After the cells were grown 2 days in medium where cytosine arabinoside (Ara-C, 100 μM) was added to kill dividing nonneuronal cells, medium was changed to one without Ara-C. The resuspended cells were plated at a density of 1500-2000 neurons/well onto Terasaki plates previously coated with 10 μg/ml poly-D-ornithine.
2) ^45Ca Influx Experiments
DRG nerve cells from the primary culture of 2 days were equilibrated by washing 4 times with HEPES (10 mM, pH 7.4)-buffered Ca^2+, Mg^2+-free HBSS (H-HBSS). The solution in each well was removed from the individual well. Medium containing the test compound plus capsaicin (final concentration 0.5 μM) and ^45Ca (final concentration 10 μCi/ml) in H-HBSS was added to each well and incubated at room temperature for 10 nuns. Terasaki plates were washed five times with H-HBSS and dried at room temperature. To each well, 0.3% SDS (10 μl) was added to elute ^45Ca. After the addition of scintillation cocktail of into each well, the amount of ^45Ca influx into neuron was measured by counting radioactivity. Antagonistic activities of test compounds against vanilloid receptor were calculated as percent of the inhibition of maximal response of capsaicin at a concentration of 0.5 μM.

T1 sequence (O35433 whole entry): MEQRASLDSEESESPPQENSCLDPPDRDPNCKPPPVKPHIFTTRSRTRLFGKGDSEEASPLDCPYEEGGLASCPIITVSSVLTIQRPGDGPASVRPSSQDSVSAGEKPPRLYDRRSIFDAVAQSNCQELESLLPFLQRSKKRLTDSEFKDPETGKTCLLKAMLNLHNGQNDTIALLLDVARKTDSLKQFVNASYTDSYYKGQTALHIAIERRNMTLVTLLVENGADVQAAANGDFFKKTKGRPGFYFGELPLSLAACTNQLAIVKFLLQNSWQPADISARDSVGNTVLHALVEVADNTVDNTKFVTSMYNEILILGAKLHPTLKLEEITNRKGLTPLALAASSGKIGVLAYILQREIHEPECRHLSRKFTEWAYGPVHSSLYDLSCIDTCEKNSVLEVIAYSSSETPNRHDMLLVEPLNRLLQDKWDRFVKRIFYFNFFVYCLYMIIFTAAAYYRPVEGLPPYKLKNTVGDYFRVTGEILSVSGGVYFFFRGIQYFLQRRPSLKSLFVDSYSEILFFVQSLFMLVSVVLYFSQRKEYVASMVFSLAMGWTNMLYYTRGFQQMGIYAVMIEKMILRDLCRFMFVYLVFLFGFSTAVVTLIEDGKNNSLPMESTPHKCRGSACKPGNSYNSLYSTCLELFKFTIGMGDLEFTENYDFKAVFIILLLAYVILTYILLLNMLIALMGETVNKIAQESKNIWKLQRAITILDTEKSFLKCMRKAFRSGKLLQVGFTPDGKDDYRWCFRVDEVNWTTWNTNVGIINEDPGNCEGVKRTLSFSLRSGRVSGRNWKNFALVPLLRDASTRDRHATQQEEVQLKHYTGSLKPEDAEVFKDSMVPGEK

C[C@@H](NC(=O)c1csc(Cc2cccc(C(F)(F)F)c2)n1)c1cc(F)c(NS(C)(=O)=O)c(F)c1 (stereo in doubt) [Example 20, 2-(3-Trifluoromethyl-benzyl)-thiazole-4-carboxylic acid [1-(3,5-difluoro-4-methanesulfonylamino-phenyl)-ethyl]-amide]
inhibition at 10 µM (DRG neuron, @10 μM, read-out: Antagonist Calcium Uptake Test, percent inhibition of capsaicin response): 67%

C[C@@H](NC(=O)c1coc(Oc2cccc3c2OC(C)(C)C3)n1)c1cc(F)c(NS(C)(=O)=O)c(F)c1 (stereo in doubt) [Example 34, 2-(2,2-Dimethyl-2,3-dihydro-benzofuran-7-yloxy)-oxazole-4-carboxylic acid [1-(3,5-difluoro-4-methanesulfonylamino-phenyl)-ethyl]-amide]
pIC50: 6.40

C[C@@H](NC(=O)c1coc(Oc2cccc3c2CCCC3)n1)c1cc(F)c(NS(C)(=O)=O)c(F)c1 (stereo in doubt) [Example 55, 2-(5,6,7,8-Tetrahydro-naphthalen-1-yloxy)-oxazole-4-carboxylic acid [1-(3,5-difluoro-4-methanesulfonylamino-phenyl)-ethyl]-amide]
inhibition at 1 µM (DRG neuron, @1 μM, read-out: Antagonist Calcium Uptake Test, percent inhibition of capsaicin response): 74%

C[C@@H](NC(=O)c1coc(Oc2cccc3c2CCC3C(F)(F)F)n1)c1cc(F)c(NS(C)(=O)=O)c(F)c1 (stereo in doubt) [Example 57, 2-(1-Trifluoromethyl-indan-4-yloxy)-oxazole-4-carboxylic acid [1-(3,5-difluoro-4-methanesulfonylamino-phenyl)-ethyl]-amide]
pIC50: 6.48

COc1cccc(-c2nc(C(=O)N[C@H](C)c3cc(F)c(NS(C)(=O)=O)c(F)c3)co2)c1 (stereo in doubt) [Example 68, 2-(3-Methoxy-phenyl)-oxazole-4-carboxylic acid [1-(3,5-difluoro-4-methanesulfonylamino-phenyl)-ethyl]-amide]
pIC50: 5.77

C[C@@H](NC(=O)c1ccc(-c2cccc(C(F)(F)F)c2)s1)c1cc(F)c(NS(C)(=O)=O)c(F)c1 (stereo in doubt) [Example 73, 5-(3-Trifluoromethyl-phenyl)-thiophene-2-carboxylic acid [1-(3,5-difluoro-4-methanesulfonylamino-phenyl)-ethyl]-amide]
pIC50: 4.98

C[C@@H](NC(=O)c1coc(-c2cccc(C(F)(F)F)c2F)n1)c1cc(F)c(NS(C)(=O)=O)c(F)c1 (stereo in doubt) [Example 79, 2-(2-Fluoro-3-trifluoromethyl-phenyl)-oxazole-4-carboxylic acid [1-(3,5-difluoro-4-methanesulfonylamino-phenyl)-ethyl]-amide]
pIC50: 6.00

C[C@@H](NC(=O)c1coc(-c2ccccc2Cl)n1)c1cc(F)c(NS(C)(=O)=O)c(F)c1 (stereo in doubt) [Example 84, 2-(2-Chloro-phenyl)-oxazole-4-carboxylic acid [1-(3,5-difluoro-4-methanesulfonylamino-phenyl)-ethyl]-amide]
pIC50: 5.13

COc1ccc(-c2nc(C(=O)N[C@H](C)c3cc(F)c(NS(C)(=O)=O)c(F)c3)co2)cc1C(F)(F)F (stereo in doubt) [Example 96, 2-(4-Methoxy-3-trifluoromethyl-phenyl)-oxazole-4-carboxylic acid [1-(3,5-difluoro-4-methanesulfonylamino-phenyl)-ethyl]-amide]
pIC50: 5.89

C[C@@H](NC(=O)c1csc(-c2cc(C3CC3)cc(C3CC3)c2)n1)c1cc(F)c(NS(C)(=O)=O)c(F)c1 (stereo in doubt) [Example 107, 2-(3,5-Dicyclopropyl-phenyl)-thiazole-4-carboxylic acid [1-(3,5-difluoro-4-methanesulfonylamino-phenyl)-ethyl]-amide]
pIC50: 5.52

CC(C)c1ccccc1Oc1nc(C(=O)N[C@H](C)c2cc(F)c(NS(C)(=O)=O)c(F)c2)co1 [Example 3, 2-(2-Isopropyl-phenoxy)-oxazole-4-carboxylic acid [1-(3,5-difluoro-4-methanesulfonylamino-phenyl)-ethyl]-amide]
pIC50: 6.31

CC(C)c1ccc(Oc2nc(C(=O)N[C@H](C)c3cc(F)c(NS(C)(=O)=O)c(F)c3)co2)cc1 [Example 5, 2-(4-Isopropyl-phenoxy)-oxazole-4-carboxylic acid [1-(3,5-difluoro-4-methanesulfonylamino-phenyl)-ethyl]-amide]
pIC50: 5.44

C[C@@H](NC(=O)c1coc(Oc2ccc(C(F)(F)F)cc2)n1)c1cc(F)c(NS(C)(=O)=O)c(F)c1 [Example 6, 2-(4-Trifluoromethyl-phenoxy)-oxazole-4-carboxylic acid [1-(3,5-difluoro-4-methanesulfonylamino-phenyl)-ethyl]-amide]
pIC50: 5.30

C[C@@H](NC(=O)c1coc(Oc2ccc(C(C)(C)C)cc2)n1)c1cc(F)c(NS(C)(=O)=O)c(F)c1 [Example 7, 2-(4-tert-Butyl-phenoxy)-oxazole-4-carboxylic acid [1-(3,5-difluoro-4-methanesulfonylamino-phenyl)-ethyl]-amide]
pIC50: 5.37

CCN(CC)c1cccc(Oc2nc(C(=O)N[C@H](C)c3cc(F)c(NS(C)(=O)=O)c(F)c3)co2)c1 [Example 8, 2-(3-Diethylamino-phenoxy)-oxazole-4-carboxylic acid [1-(3,5-difluoro-4-methanesulfonylamino-phenyl)-ethyl]-amide]
pIC50: 5.57

CC(C)c1cccc(Oc2nc(C(=O)NCc3cc(F)c(NS(C)(=O)=O)c(F)c3)co2)c1 [Example 9, 2-(3-Isopropyl-phenoxy)-oxazole-4-carboxylic acid 3,5-difluoro-4-methanesulfonylamino-benzylamide]
pIC50: 6.36

C[C@@H](NC(=O)c1csc(Cc2ccc(C(C)(C)C)cc2)n1)c1cc(F)c(NS(C)(=O)=O)c(F)c1 [Example 10, (R)—N-[1-(3,5-Difluoro-4-methanesulfonylamino-phenyl)-ethyl]-2-(4-t-butylbenzyl)-thiazole-4-amide]
pIC50: 5.19

C[C@@H](NC(=O)c1csc(Cc2ccc(F)c(F)c2)n1)c1cc(F)c(NS(C)(=O)=O)c(F)c1 [Example 11, (R)—N-[1-(3,5-Difluoro-4-methanesulfonylamino-phenyl)-ethyl]-2-(3,4-difluorobenzyl)-thiazole-4-amide]
pIC50: < 5.00

CS(=O)(=O)Nc1c(F)cc(CNC(=O)c2csc(Cc3ccc(F)c(F)c3)n2)cc1F [Example 12, N-[1-(3,5-Difluoro-4-methanesulfonylamino)-benzyl]-2-(3,4-difluorobenzyl)-thiazole-4-amide]
pIC50: < 5.00

C[C@@H](NC(=O)c1coc(NCC2CCCCC2)n1)c1cc(F)c(NS(C)(=O)=O)c(F)c1 [Example 13, 2-(Cyclohexylmethyl-amino)-oxazole-4-carboxylic acid [1-(3,5-difluoro-4-methanesulfonylamino-phenyl)-ethyl]-amide]
pIC50: 5.85

CS(=O)(=O)Nc1c(F)cc(CNC(=O)c2csc(Oc3ccc(C(F)(F)F)cc3)n2)cc1F [Example 14, 2-(4-Trifluoromethyl-phenoxy)-thiazole-4-carboxylic acid 3,5-difluoro-4-methanesulfonylamino-benzylamide]
pIC50: 5.82

C[C@@H](NC(=O)c1coc(Oc2cccc(Br)c2)n1)c1cc(F)c(NS(C)(=O)=O)c(F)c1 [Example 15, 2-(3-Bromo-phenoxy)-oxazole-4-carboxylic acid [1-(3,5-difluoro-4-methanesulfonylamino-phenyl)-ethyl]-amide]
pIC50: 6.22

C[C@@H](NC(=O)c1coc(Oc2cccc(Cl)c2)n1)c1cc(F)c(NS(C)(=O)=O)c(F)c1 [Example 16, 2-(3-Chloro-phenoxy)-oxazole-4-carboxylic acid [1-(3,5-difluoro-4-methanesulfonylamino-phenyl)-ethyl]-amide]
pIC50: 6.11

C[C@@H](NC(=O)c1coc(Oc2cccc(C#N)c2)n1)c1cc(F)c(NS(C)(=O)=O)c(F)c1 [Example 17, 2-(3-Cyano-phenoxy)-oxazole-4-carboxylic acid [1-(3,5-difluoro-4-methanesulfonylamino-phenyl)-ethyl]-amide]
pIC50: < 5.00

C[C@@H](NC(=O)c1coc(Oc2cccc([N+](=O)[O-])c2)n1)c1cc(F)c(NS(C)(=O)=O)c(F)c1 [Example 18, 2-(3-Nitro-phenoxy)-oxazole-4-carboxylic acid [1-(3,5-difluoro-4-methanesulfonylamino-phenyl)-ethyl]-amide]
pIC50: 5.54
